Measurements from the NIST ThermoML archive (doi:10.1021/je700282w).
Numbers after ± are expanded uncertainties.

Experiment: activity coefficient (dimensionless); of the first substance listed, at infinite dilution; xn = mol fraction of the nth substance listed
Conditions: 101 kPa, Liquid, Chromatography, x1 = 0

| Compound | activity coefficient (303.15 K) | activity coefficient (313.15 K) | activity coefficient (323.15 K) | activity coefficient (333.15 K) | activity coefficient (343.15 K) | activity coefficient (353.15 K) | activity coefficient (363.15 K) |
| --- | --- | --- | --- | --- | --- | --- | --- |
| Cc1ccccc1C [1,2-dimethylbenzene] + CCCCn1cc[n+](C)c1.O=S(=O)([O-])C(F)(F)F | 3.66 ± 0.36 | 3.67 ± 0.36 | 3.68 ± 0.37 | 3.7 ± 0.37 | 3.71 ± 0.37 | 3.76 ± 0.37 | 3.78 ± 0.38 |
| Cc1cccc(C)c1 [1,3-dimethylbenzene] + CCCCn1cc[n+](C)c1.O=S(=O)([O-])C(F)(F)F | 4.72 ± 0.47 | 4.66 ± 0.46 | 4.58 ± 0.46 | 4.47 ± 0.45 | 4.41 ± 0.44 | 4.33 ± 0.43 | 4.07 ± 0.41 |
| Cc1ccc(C)cc1 [1,4-dimethylbenzene] + CCCCn1cc[n+](C)c1.O=S(=O)([O-])C(F)(F)F | 4.3 ± 0.43 | 4.32 ± 0.43 | 4.33 ± 0.43 | 4.37 ± 0.43 | 4.41 ± 0.44 | 4.42 ± 0.44 | 4.42 ± 0.44 |
| c1ccccc1 [benzene] + CCCCn1cc[n+](C)c1.O=S(=O)([O-])C(F)(F)F | 1.81 ± 0.18 | 1.82 ± 0.18 | 1.83 ± 0.18 | 1.84 ± 0.18 | 1.86 ± 0.18 | 1.87 ± 0.19 | 1.9 ± 0.19 |
| C1CCCCC1 [cyclohexane] + CCCCn1cc[n+](C)c1.O=S(=O)([O-])C(F)(F)F | 21.8 ± 2.2 | 20.5 ± 2 | 19.2 ± 1.9 | 18.1 ± 1.8 | 16.9 ± 1.7 | 15.5 ± 1.5 | 14.6 ± 1.4 |
| C1=CCCCC1 [cyclohexene] + CCCCn1cc[n+](C)c1.O=S(=O)([O-])C(F)(F)F | 10.9 ± 1.1 | 10.4 ± 1 | 10.1 ± 1 | 9.69 ± 0.96 | 9.34 ± 0.93 | 9.15 ± 0.91 | 8.82 ± 0.88 |
| CCc1ccccc1 [ethylbenzene] + CCCCn1cc[n+](C)c1.O=S(=O)([O-])C(F)(F)F | 4.62 ± 0.46 | 4.57 ± 0.46 | 4.54 ± 0.45 | 4.52 ± 0.45 | 4.5 ± 0.45 | 4.49 ± 0.45 | 4.47 ± 0.44 |
| CC1CCCCC1 [methylcyclohexane] + CCCCn1cc[n+](C)c1.O=S(=O)([O-])C(F)(F)F | 30.2 ± 3 | 28.5 ± 2.8 | 26.8 ± 2.7 | 25.4 ± 2.5 | 24.1 ± 2.4 | 22.9 ± 2.3 | 21.6 ± 2.1 |
| C=Cc1ccccc1 [styrene] + CCCCn1cc[n+](C)c1.O=S(=O)([O-])C(F)(F)F | 2.46 ± 0.24 | 2.48 ± 0.25 | 2.49 ± 0.25 | 2.51 ± 0.25 | 2.53 ± 0.25 | 2.54 ± 0.25 | 2.57 ± 0.26 |
| Cc1ccccc1 [toluene] + CCCCn1cc[n+](C)c1.O=S(=O)([O-])C(F)(F)F | 2.72 ± 0.27 | 2.75 ± 0.27 | 2.78 ± 0.28 | 2.8 ± 0.28 | 2.83 ± 0.28 | 2.85 ± 0.28 | 2.88 ± 0.29 |

Other lines, results leading:

| activity coefficient (303.15 K) | activity coefficient (313.15 K) | activity coefficient (323.15 K) | activity coefficient (333.15 K) | activity coefficient (343.15 K) | activity coefficient (353.15 K) | activity coefficient (363.15 K) | Compound |
| --- | --- | --- | --- | --- | --- | --- | --- |
| 57 ± 5.7 | 52.9 ± 5.3 | 50.9 ± 5.1 | 47.9 ± 4.8 | 45.6 ± 4.5 | 43.9 ± 4.4 | 40.8 ± 4.1 | CC(C)CC(C)(C)C [2,2,4-trimethylpentane] + CCCCn1cc[n+](C)c1.O=S(=O)([O-])C(F)(F)F |
| 897 | 709 | 576 | 483 | 409 | 348 | 306 | CCCCCCCCCC [decane] + CCCCn1cc[n+](C)c1.O=S(=O)([O-])C(F)(F)F |
| 56.7 ± 5.7 | 51.6 ± 5.2 | 48.5 ± 4.8 | 46 ± 4.6 | 43.3 ± 4.3 | 41.1 ± 4.1 | 38.8 ± 3.9 | CCCCCCC [heptane] + CCCCn1cc[n+](C)c1.O=S(=O)([O-])C(F)(F)F |
| 37.8 ± 3.8 | 35.7 ± 3.6 | 33.9 ± 3.4 | 32.1 ± 3.2 | 30.3 ± 3 | 29.1 ± 2.9 | 27.6 ± 2.8 | CCCCCC [hexane] + CCCCn1cc[n+](C)c1.O=S(=O)([O-])C(F)(F)F |
| 122 ± 12 | 111 ± 11 | 103 ± 10 | 93.3 ± 9.3 | 88.2 ± 8.8 | 81.3 ± 8.1 | 75.9 ± 7.6 | CCCCCCCCC [nonane] + CCCCn1cc[n+](C)c1.O=S(=O)([O-])C(F)(F)F |
| 87.2 ± 8.7 | 79.9 ± 8 | 74.1 ± 7.4 | 68.3 ± 6.8 | 63.2 ± 6.3 | 60.3 ± 6 | 55.1 ± 5.5 | CCCCCCCC [octane] + CCCCn1cc[n+](C)c1.O=S(=O)([O-])C(F)(F)F |
| 26.5 ± 2.6 | 24.9 ± 2.5 | 23.9 ± 2.4 | 23.2 ± 2.3 | 22.2 ± 2.2 | 21.2 ± 2.1 | 19.9 ± 2 | CCCCC [pentane] + CCCCn1cc[n+](C)c1.O=S(=O)([O-])C(F)(F)F |
